Reference: ChEMBL document CHEMBL1649421, “New drug-like hydroxyphenylnaphthol steroidomimetics as potent and selective 17β-hydroxysteroid dehydrogenase type 1 inhibitors for the treatment of estrogen-dependent diseases” (J Med Chem, 2011)

Key:
[1] = target: T1, 17-beta-hydroxysteroid dehydrogenase type 2 (Homo sapiens) (UniProt P37059); test: Inhibition of [3H]E2 binding to human recombinant 17beta-HSD2 expressed in baculovirus-infected Sf9 cells at 100 nM after 10 mins by fluid scintillation counting
T1 sequence (whole entry): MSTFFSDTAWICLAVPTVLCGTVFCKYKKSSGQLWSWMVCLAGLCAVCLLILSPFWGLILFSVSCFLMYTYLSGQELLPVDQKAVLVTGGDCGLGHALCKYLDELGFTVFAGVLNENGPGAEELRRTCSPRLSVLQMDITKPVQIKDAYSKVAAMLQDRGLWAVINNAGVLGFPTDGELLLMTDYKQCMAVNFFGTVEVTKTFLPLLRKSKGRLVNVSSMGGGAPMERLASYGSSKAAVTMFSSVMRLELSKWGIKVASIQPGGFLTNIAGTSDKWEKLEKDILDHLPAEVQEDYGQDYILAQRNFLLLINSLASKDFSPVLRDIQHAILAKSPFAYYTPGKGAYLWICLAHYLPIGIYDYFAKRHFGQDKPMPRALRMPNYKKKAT

[2] = target: T2, 17-beta-hydroxysteroid dehydrogenase type 1 (Homo sapiens) (UniProt P14061); test: Inhibition of [3H]E1 binding to human recombinant 17beta-HSD1 expressed in baculovirus-infected Sf9 cells at 1 uM after 10 mins by fluid scintillation counting
T2 sequence (whole entry): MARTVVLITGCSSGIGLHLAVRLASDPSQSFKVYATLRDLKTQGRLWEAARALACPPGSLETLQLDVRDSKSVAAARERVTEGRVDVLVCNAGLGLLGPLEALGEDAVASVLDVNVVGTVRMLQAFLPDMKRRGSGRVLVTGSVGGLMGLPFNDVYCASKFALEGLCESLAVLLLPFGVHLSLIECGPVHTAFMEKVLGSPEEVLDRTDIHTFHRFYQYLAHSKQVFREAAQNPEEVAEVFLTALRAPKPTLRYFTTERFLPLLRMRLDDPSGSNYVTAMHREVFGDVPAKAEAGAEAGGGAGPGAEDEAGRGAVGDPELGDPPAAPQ

[3] = target: T1, 17-beta-hydroxysteroid dehydrogenase type 2 (Homo sapiens); test: Inhibition of [3H]E2 binding to human recombinant 17beta-HSD2 expressed in baculovirus-infected Sf9 cells at 1 uM after 10 mins by fluid scintillation counting
[4] = target: T2, 17-beta-hydroxysteroid dehydrogenase type 1 (Homo sapiens); test: Inhibition of [3H]E1 binding to human recombinant 17beta-HSD1 expressed in baculovirus-infected Sf9 cells at 100 nM after 10 mins by fluid scintillation counting
[5] = target: Estrogen receptor beta (Homo sapiens) (UniProt Q92731); test: Displacement of [3H]E2 from human recombinant ERbeta by liquid scintillation counting relative to estradiol
Chain of Estrogen receptor beta (Homo sapiens) (Q92731 whole entry): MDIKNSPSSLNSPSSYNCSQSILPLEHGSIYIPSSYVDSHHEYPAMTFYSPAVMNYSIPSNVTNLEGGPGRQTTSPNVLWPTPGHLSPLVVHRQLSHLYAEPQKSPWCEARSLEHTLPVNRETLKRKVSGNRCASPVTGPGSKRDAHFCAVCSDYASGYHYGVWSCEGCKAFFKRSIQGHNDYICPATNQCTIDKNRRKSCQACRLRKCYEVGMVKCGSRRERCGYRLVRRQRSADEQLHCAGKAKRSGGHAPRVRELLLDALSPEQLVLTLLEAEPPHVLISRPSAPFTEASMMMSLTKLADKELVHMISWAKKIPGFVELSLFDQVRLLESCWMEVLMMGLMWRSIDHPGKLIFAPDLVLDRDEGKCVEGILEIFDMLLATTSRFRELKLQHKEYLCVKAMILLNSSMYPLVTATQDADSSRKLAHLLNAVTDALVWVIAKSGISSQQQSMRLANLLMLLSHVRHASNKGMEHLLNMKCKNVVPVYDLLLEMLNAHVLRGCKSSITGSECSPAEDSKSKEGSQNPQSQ

[6] = species: Homo sapiens; test: Selectivity ratio of IC50 for human placental 17beta-HSD2 to IC50 for human placental 17beta-HSD1
[7] = target: T3, Estrogen receptor (Homo sapiens) (UniProt P03372); test: Displacement of [3H]E2 from human recombinant ERalpha by liquid scintillation counting relative to estradiol
T3 sequence (whole entry): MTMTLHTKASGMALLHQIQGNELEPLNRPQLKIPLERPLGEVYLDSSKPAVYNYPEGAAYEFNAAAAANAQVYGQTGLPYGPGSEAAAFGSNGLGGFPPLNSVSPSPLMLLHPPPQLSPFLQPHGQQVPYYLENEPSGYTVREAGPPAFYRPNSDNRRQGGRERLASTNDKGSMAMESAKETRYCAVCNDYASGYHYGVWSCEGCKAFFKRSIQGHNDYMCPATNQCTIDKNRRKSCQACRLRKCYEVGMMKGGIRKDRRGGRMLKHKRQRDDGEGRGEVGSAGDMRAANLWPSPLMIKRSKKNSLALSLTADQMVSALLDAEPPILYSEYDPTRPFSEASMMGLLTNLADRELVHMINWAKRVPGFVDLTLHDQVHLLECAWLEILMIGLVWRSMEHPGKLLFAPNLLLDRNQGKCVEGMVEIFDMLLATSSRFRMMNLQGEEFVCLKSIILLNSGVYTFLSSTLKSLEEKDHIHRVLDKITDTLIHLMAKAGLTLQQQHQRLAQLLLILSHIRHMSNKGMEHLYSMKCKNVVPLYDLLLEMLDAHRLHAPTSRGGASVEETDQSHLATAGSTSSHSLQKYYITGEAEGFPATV

[8] = target: T4, 17-beta-hydroxysteroid dehydrogenase type 1 (Homo sapiens, UniProt P14061); test: Displacement of [3H]E1 from 17beta-HSD1 in human T47D cells after 10 mins by fluid scintillation counting; assay type: cell-based
T4 sequence (P14061 whole entry): T2 sequence (whole entry)

[9] = target: T2, 17-beta-hydroxysteroid dehydrogenase type 1 (Homo sapiens); test: Inhibition of [3H]E1 binding to human placental 17beta-HSD1 at 1 uM after 10 mins by fluid scintillation counting
[10] = target: T1, 17-beta-hydroxysteroid dehydrogenase type 2 (Homo sapiens); test: Inhibition of [3H]E2 binding to human placental 17beta-HSD2 at 1 uM after 10 mins by fluid scintillation counting
[11] = target: T5, 17-beta-hydroxysteroid dehydrogenase type 2 (Homo sapiens, UniProt P37059); test: Displacement of [3H]E2 from human placental 17beta-HSD2 after 10 mins by fluid scintillation counting
T5 sequence (P37059 whole entry): T1 sequence (whole entry)

[12] = Apparent permeability across human Caco2 cells after 180 mins by LC-MS/MS analysis; assay type: ADME, cell-based; details: Caco-2
[13] = Half life in Sprague-Dawley rat liver microsomes by LC-MS/MS analysis; assay type: ADME, Microsome
[14] = target: T4, 17-beta-hydroxysteroid dehydrogenase type 1; test: Displacement of [3H]E1 from human placental 17beta-HSD1 after 10 mins by fluid scintillation counting
[15] = target: Cytochrome P450 3A4 (Homo sapiens, UniProt P08684); test: Inhibition of human CYP3A4; assay type: ADME
Chain of Cytochrome P450 3A4 (P08684 whole entry): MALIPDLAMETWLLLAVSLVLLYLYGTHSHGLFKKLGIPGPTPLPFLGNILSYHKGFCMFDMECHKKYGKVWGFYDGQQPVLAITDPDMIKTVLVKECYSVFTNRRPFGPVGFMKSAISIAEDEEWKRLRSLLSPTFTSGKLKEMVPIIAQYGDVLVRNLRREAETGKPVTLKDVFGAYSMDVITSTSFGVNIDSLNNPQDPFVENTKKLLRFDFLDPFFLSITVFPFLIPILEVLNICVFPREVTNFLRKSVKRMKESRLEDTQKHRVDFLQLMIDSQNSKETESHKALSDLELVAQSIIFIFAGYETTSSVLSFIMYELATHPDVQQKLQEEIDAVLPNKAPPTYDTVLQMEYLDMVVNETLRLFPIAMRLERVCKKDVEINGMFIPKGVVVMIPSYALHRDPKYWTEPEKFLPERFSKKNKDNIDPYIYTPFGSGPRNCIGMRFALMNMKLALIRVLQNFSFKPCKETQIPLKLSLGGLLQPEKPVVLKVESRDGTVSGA

[16] = Half life in Wistar rat at 50 mg/kg, po administered as single dose by LC-MS/MS analysis; assay type: ADME, organism-based; set-up: dose 50 mg/kg, route oral; details: in vivo
[17] = target: Cytochrome P450 2C9 (Homo sapiens, UniProt P11712); test: Inhibition of human CYP2C9; assay type: ADME
Chain of Cytochrome P450 2C9 (P11712 whole entry): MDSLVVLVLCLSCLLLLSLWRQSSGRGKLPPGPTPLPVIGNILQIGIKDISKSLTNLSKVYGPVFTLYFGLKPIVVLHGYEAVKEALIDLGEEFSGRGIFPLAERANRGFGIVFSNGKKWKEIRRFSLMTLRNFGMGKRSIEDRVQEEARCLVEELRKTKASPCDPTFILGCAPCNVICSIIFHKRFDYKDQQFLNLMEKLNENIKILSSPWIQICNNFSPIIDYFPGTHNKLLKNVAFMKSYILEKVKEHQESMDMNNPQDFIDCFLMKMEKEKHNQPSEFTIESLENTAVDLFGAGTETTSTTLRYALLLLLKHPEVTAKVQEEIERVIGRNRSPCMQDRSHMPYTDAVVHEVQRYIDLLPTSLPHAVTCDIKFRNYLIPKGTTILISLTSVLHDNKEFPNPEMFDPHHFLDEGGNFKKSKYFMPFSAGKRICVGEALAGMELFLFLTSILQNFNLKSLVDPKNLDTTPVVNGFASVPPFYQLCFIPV

[18] = system: Liver microsomes; test: Intrinsic clearance in Sprague-Dawley rat liver microsomes after 60 mins by LC-MS/MS analysis; assay type: ADME, Microsome; details: 1 h
[19] = AUC (0 to t) in Wistar rat at 50 mg/kg, po administered as single dose by LC-MS/MS analysis; assay type: ADME, organism-based; set-up: dose 50 mg/kg, route oral; details: plasma
[20] = system: Rattus norvegicus; test: Clast in Wistar rat at 50 mg/kg, po administered as single dose by LC-MS/MS analysis; assay type: ADME, organism-based; set-up: dose 50 mg/kg, route oral; details: in vivo
[21] = target: T6, Cytochrome P450 1A2 (Homo sapiens, UniProt P05177); test: Inhibition of human CYP1A2; assay type: ADME
T6 sequence (P05177 whole entry): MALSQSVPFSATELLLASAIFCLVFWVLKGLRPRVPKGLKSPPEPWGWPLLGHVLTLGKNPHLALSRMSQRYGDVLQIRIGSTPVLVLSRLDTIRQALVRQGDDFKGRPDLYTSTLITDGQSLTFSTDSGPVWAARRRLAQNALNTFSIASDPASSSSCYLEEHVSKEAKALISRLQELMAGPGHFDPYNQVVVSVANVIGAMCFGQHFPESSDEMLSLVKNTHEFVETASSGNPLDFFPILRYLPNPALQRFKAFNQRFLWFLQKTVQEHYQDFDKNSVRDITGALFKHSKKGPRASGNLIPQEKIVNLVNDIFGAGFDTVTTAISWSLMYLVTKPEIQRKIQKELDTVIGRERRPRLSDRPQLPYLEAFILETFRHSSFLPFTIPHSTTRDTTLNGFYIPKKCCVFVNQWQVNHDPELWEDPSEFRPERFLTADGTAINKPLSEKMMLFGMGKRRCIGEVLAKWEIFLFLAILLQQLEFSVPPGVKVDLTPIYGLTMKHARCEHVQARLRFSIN

[22] = target: T7, Cytochrome P450 2B6 (Homo sapiens, UniProt P20813); test: Inhibition of human CYP2B6; assay type: ADME
T7 sequence (P20813 whole entry): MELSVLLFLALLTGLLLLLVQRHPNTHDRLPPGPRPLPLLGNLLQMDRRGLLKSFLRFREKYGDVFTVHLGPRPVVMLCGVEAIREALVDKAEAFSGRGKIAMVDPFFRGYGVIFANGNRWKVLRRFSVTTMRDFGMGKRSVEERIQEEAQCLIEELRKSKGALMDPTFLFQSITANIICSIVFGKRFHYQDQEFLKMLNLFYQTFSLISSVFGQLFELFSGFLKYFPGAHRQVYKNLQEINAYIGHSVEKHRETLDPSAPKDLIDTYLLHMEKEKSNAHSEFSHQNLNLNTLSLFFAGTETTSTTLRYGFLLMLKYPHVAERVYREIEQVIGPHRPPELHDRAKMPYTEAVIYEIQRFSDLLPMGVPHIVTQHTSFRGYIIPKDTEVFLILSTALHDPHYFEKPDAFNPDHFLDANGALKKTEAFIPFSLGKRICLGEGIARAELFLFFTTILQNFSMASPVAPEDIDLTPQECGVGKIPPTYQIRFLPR

[23] = target: Cytochrome P450 2D6 (Homo sapiens, UniProt P10635); test: Inhibition of human CYP2D6; assay type: ADME
Chain of Cytochrome P450 2D6 (P10635 whole entry): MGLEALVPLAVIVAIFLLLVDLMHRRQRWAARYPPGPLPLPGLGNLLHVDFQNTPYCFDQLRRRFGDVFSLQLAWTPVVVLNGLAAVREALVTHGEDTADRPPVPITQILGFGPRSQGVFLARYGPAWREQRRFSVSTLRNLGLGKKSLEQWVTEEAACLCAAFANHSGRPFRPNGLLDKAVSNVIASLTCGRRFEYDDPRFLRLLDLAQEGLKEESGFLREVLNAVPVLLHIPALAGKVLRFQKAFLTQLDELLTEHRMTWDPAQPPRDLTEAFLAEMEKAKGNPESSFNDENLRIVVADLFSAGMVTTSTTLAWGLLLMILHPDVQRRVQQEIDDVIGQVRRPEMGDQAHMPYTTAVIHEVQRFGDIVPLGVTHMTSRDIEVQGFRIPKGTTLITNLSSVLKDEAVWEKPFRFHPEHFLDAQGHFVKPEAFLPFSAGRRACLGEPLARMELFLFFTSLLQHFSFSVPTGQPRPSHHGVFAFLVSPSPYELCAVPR

[24] = Cmax in Wistar rat at 50 mg/kg, po administered as single dose by LC-MS/MS analysis; assay type: ADME, organism-based; set-up: dose 50 mg/kg, route oral; details: in vivo
[25] = Tmax in Wistar rat at 50 mg/kg, po administered as single dose by LC-MS/MS analysis; assay type: ADME, organism-based; set-up: dose 50 mg/kg, route oral; details: in vivo
[26] = system: Rattus norvegicus; test: Tlast in Wistar rat at 50 mg/kg, po administered as single dose by LC-MS/MS analysis; assay type: ADME, organism-based; set-up: dose 50 mg/kg, route oral; details: in vivo
[27] = target: Cytochrome P450 2C19 (Homo sapiens, UniProt P33261); test: Inhibition of human CYP2C19; assay type: ADME
Chain of Cytochrome P450 2C19 (P33261 whole entry): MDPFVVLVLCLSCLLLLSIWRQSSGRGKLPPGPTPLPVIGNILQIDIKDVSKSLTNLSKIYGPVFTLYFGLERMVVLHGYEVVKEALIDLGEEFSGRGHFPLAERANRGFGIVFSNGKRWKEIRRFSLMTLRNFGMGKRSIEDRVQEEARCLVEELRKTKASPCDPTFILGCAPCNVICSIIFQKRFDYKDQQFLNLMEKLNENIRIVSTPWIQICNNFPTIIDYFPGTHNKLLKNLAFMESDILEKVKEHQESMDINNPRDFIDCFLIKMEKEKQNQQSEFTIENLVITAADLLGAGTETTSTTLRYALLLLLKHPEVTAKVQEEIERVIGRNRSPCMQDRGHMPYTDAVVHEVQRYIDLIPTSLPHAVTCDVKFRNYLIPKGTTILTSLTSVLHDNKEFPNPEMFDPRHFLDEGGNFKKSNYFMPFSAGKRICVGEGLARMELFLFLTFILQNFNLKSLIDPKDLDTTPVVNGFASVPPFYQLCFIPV

[28] = target: T2, 17-beta-hydroxysteroid dehydrogenase type 1 (Homo sapiens); test: Inhibition of [3H]E1 binding to human placental 17beta-HSD1 at 100 nM after 10 mins by fluid scintillation counting

Compound	inhibition [1] [%]	inhibition [2] [%]	inhibition [3] [%]	inhibition [4] [%]	RBA [5] [%]	RBA [7] [%]	inhibition [9] [%]	inhibition [10] [%]	also measured
O=C(O)c1cccc(-c2c(O)ccc3cc(-c4cccc(O)c4)ccc23)c1	< 10	80	34	45	–	–	–	–	–
Oc1cccc(-c2ccc3cc(O)ccc3c2)c1	–	–	–	–	0.1	0.1	–	–	Ratio IC50 [6]: 49; IC50 [8]: 229 nM
Oc1cccc(-c2ccc3c(-c4cncnc4)cccc3c2)c1	–	–	–	–	–	–	< 10	< 10	–
O=C(O)CCC(=O)Nc1cccc(-c2c(O)ccc3cc(-c4cccc(O)c4)ccc23)c1	24	62	68	< 10	–	–	–	–	–
Oc1ccccc1-c1ccc2c(-c3cncnc3)c(O)ccc2c1	–	–	–	–	–	–	< 10	< 10	–
Oc1ccccc1-c1ccc2c(-c3cncnc3)cccc2c1	–	–	–	–	–	–	< 10	< 10	–
Oc1cccc(-c2ccc3c(-c4ccc(N5CCOCC5)cc4)c(O)ccc3c2)c1	12	65	32	32	–	–	–	–	–
COc1ncc(-c2c(O)ccc3cc(-c4cccc(O)c4)ccc23)c(OC)n1	–	–	–	–	–	–	79	9	inhibition [28]: 31%
Oc1ccc2cc(-c3ccccc3)ccc2c1-c1cncnc1	–	–	–	–	–	–	22	< 10	–
CC(=O)Nc1cccc(-c2c(O)ccc3cc(-c4cccc(O)c4)ccc23)c1	24	82	64	35	–	–	–	–	–
Oc1ccc(-c2ccc3c(-c4cncnc4)c(O)ccc3c2)cc1	–	–	–	–	–	–	35	22	–

Now from value to compound, other results behind:

inhibition [1] [%]	inhibition [2] [%]	inhibition [3] [%]	inhibition [4] [%]	RBA [5] [%]	RBA [7] [%]	inhibition [9] [%]	inhibition [10] [%]	Compound	also measured
24	89	67	86	< 0.01	0.01	–	–	COc1ccc(-c2c(O)ccc3cc(-c4cccc(O)c4)ccc23)cn1	IC50 [11]: 530 nM; Papp at 3 h [12]: 8 ×10⁻⁶ cm/s; half-life [13]: 4.82 h
12	86	49	74	< 0.01	0.01	–	–	Oc1cccc(-c2ccc3c(-c4ccncc4)c(O)ccc3c2)c1	IC50 [14]: 64 nM
< 10	87	39	74	< 0.01	0.01	–	–	Nc1cccc(-c2c(O)ccc3cc(-c4cccc(O)c4)ccc23)c1	IC50 [15]: 1070 nM; half-life [16]: 1.6 h; IC50 [17]: 1250 nM; Papp at 3 h [12]: 16 ×10⁻⁶ cm/s; IC50 [14]: 53 nM; CL [18]: 93 µL/min; AUC(0-t) [19]: 337 ng·h/mL; Cz [20]: 14 ng/mL; IC50 [21]: 10500 nM; IC50 [22]: 10400 nM; IC50 [23]: 40000 nM; Cmax [24]: 44 ng/mL; Tmax [25]: 2 h; half-life [13]: 0.833 h; tz [26]: 8 h; IC50 [27]: 680 nM
–	–	–	–	–	–	87	19	Oc1cccc(-c2ccc3c(-c4ccc5[nH]ccc5c4)c(O)ccc3c2)c1	inhibition [28]: 50%
–	–	–	–	–	–	71	24	Cn1cc(-c2c(O)ccc3cc(-c4cccc(O)c4)ccc23)cn1	inhibition [28]: 28%
22	–	77	–	0.01	0.01	–	–	Oc1cccc(-c2ccc3c(-c4ccccc4)c(O)ccc3c2)c1	Ratio IC50 [6]: 27; IC50 [15]: 2770 nM; IC50 [17]: 1640 nM; Papp at 3 h [12]: 9.3 ×10⁻⁶ cm/s; IC50 [21]: 7160 nM; IC50 [22]: 7960 nM; IC50 [23]: 15500 nM; IC50 [8]: 281 nM; IC50 [27]: 1410 nM
< 10	93	40	83	0.01	0.01	–	–	Oc1cccc(-c2ccc3c(-c4cccc(O)c4)c(O)ccc3c2)c1	Ratio IC50 [6]: 27; IC50 [15]: 40 nM; IC50 [17]: 270 nM; IC50 [14]: 36 nM; IC50 [21]: 19000 nM; IC50 [22]: 11800 nM; IC50 [23]: 24800 nM; IC50 [8]: 115 nM; IC50 [27]: 6030 nM
–	–	–	–	–	–	41	85	Oc1cccc(-c2ccc3c(-c4cncnc4)c(O)ccc3c2)c1	inhibition [28]: < 10%
61	89	92	83	0.01	0.01	–	–	Oc1cccc(-c2ccc3c(-c4ccoc4)c(O)ccc3c2)c1	Ratio IC50 [6]: 8; IC50 [14]: 70 nM
